Results: US6180634A, “Combination therapy for the treatment of AIDS” (priority 1998, dated 2001)
Where two headings read alike, the source gives them in different places.

Tests used:
wild-type HIV-1 = experiment: microbe, parasite or virus in culture; assay type: cell-based
[1] = administration to humans, plasma concentrations (general statements); assay type: in vivo, human
Description: Compound (b) is preferably selected from the group consisting of Indinavir, Ritonavir, and pharmaceutically acceptable salts thereof, and is most preferably Indinavir or a pharmaceutically acceptable salt or ester thereof. Particularly preferred is the composition in which (a) is the sulfate salt of Compound A and (b) is the sulfate salt of Indinavir. It has been discovered that the foregoing compounds of (b), when employed in combination with Compound A, can increase the plasma concentration of Compound A to a level having substantial antiviral activity.

[2] = Pharmacokinetic Study in Healthy Human Males of Compound A in Combination with Indinavir with and without Fasting (Example 12); assay type: in vivo; conditions: co-administered with Indinavir, with food vs without food
Protocol: All of the subjects received the regimen once in the fasted state and once with a high-fat breakfast. The two single-dose treatments (fasted, fed) were administered in randomized crossover fashion, separated by one week. For treatments with food a breakfast consisting of two eggs, two strips of bacon, toast with two pats of butter (2×12.5 g), 120 g of fried potatoes and 240 ml of whole milk were consumed in no more than 15 minutes, and the test medication was administered within 5 minutes after completion of the breakfast.
All of the doses of Compound A were administered as the sulfate salt form of Compound A. All of the Compound A doses were tablets containing 200 mg of Compound A. Other ingredients in the tablets included microcrystalline cellulose (Avicel PH 101), mannitol SD 200, croscarmellose sodium, hydroxypropyl cellulose and magnesium stearate. […]
(§1) The safety of the subjects was monitored prior and subsequent to dosing by clinical adverse event reporting, measurement of vital signs, physical examinations, blood and urine laboratory safety tests, and ECGs. Plasma concentrations of Compound A were determined predose and at 0.5, 1, 1.5, 2, 3, 4, 6, 8, 12, 16, 20, 24, 30, 36 and 48 hours following each single dose in each period, using a reverse-phase HPLC column switching method with fluorescence detection.

[3] = Pharmacokinetic Study of Compound A in Healthy Human Males (Example 10); assay type: in vivo; conditions: 20 mg single oral dose, suspension, fasted
Protocol: A double-blind, single-rising dose, alternating two-panel, four-period, placebo-controlled study was conducted for Compound A in healthy adult males in the fasted state. Single doses of 20, 50, 100, 200, 400, 800 and 1200 mg of Compound A, or placebo, were administered as an oral suspension of the sulfate salt form of Compound A in sterile water. Each subject received increasing single oral doses of Compound A or placebo during each of the four treatment periods in alternate panels. Panel A dosage levels were 20, 100, 400 mg, and 400 mg with food. Panel B dosage levels were 50, 200, 800 and 1200 mg. For each period, 6 subjects received Compound A and 2 subjects received placebo as allocated by a randomized schedule. In Panel A, subjects who received 400 mg of Compound A also received 400 mg of Compound A with food. The safety of the subjects was monitored prior and subsequent to dosing by clinical adverse event reporting, measurement of vital signs, physical examinations, blood and urine laboratory safety tests, and ECGs. Plasma concentrations of Compound A were determined predose and at 0.5, 1, 1.5, 2, 3, 4, 6, 10, 12, 24, 32 and 48 hours following each single dose in each period, using a reverse-phase HPLC column switching method with fluorescence detection.

[4] = Pharmacokinetic Study of Compound A Alone and in Combination with Indinavir in Healthy Human Males (Example 11); assay type: in vivo
Protocol: as §1, with “A double-blind, single-rising dose, alternating two-panel, four-period, placebo-controlled study was conducted for Compound A alone and in combination with Indinavir in healthy adult males in the fasted state. […] All of the doses of Compound A were administered as the sulfate salt form of Compound A. All of the Compound A doses were oral suspensions of the sulfate salt form in sterile water, except that the 600-mg doses administered to Panel B in the fourth period were tablets. Indinavir was administered in the form of CRIXIVAN® capsules. The” for “The”

[5] = Compound A in combination with Indinavir
[6] = 200 mg Compound A + 800 mg Indinavir relative to 200 mg Compound A alone

Row | Structure (SMILES) | IC95 (wild-type HIV-1; Human immunodeficiency virus 1, read-out: CIC95) | IC95 (wild-type HIV-1; Human immunodeficiency virus 1, wild-type HIV-1, Cell Spread Assay, read-out: CIC95) | potency relative to Indinavir (wild-type HIV-1; wild type HIV-1, in vitro) | effect of Indinavir on inter-individual variation of Compound A plasma concentrations [1, 5] | effect of Indinavir on plasma concentrations of Compound A [1, 5] | inter-individual variation in the plasma levels ([1]; humans, Compound A alone, vs Indinavir) | plasma concentration increase with successively higher doses ([1]; humans, dose proportionality) | plasma concentrations of Compound A ([1]; humans, relative to comparable doses of Indinavir) | Compound A plasma levels, fed versus fasted [2] | plasma concentrations [3] | AUC increase (times higher) [4, 6] | C8 hrs increase (times higher) [4, 6] | Cmax increase (times higher) [4, 6] | AUC increase (fold higher) ([4]; 600 mg Compound A + 800 mg Indinavir relative to Compound A alone)
1 | CC(C)(C)NC(=O)[C@@H]1CN(Cc2cccnc2)CCN1C[C@@H](O)C[C@@H](Cc1ccccc1)C(=O)N[C@H]1c2ccccc2C[C@H]1O [Indinavir, N-(2(R)-hydroxy-1(S)-indanyl)2(R)-phenylmethyl-4-(S)-hydroxy-5-(1-(4-(3-pyridylmethyl)-2(S)-N'-(t-butylcarboxamido)-piperazinyl))-pentaneamide, reference compound] | 50 nM |  |  |  |  |  |  |  |  |  |  |  |  | 
2 | CC(C)(C)NC(=O)[C@@H]1CN(Cc2cc3ccccc3o2)CCN1C[C@@H](O)C[C@@H](Cc1ccccc1)C(=O)N[C@H]1c2ccccc2C[C@H]1O [Compound A, N-(2(R)-hydroxy-1(S)-indanyl)-2(R)-phenylmethyl-4-(S)-hydroxy-5-(1-(4-(2-benzo[b]furanylmethyl)-2(S)-N'-(t-butylcarboxamido)-piperazinyl))-pentaneamide] |  | 25 nM | approximately two-fold greater potency than Indinavir | markedly reduces inter-individual variation | substantially increase the plasma concentrations | significant inter-individual variation | greater than proportional increases in plasma concentrations | very low plasma concentrations | higher Compound A plasma levels | below the assay quantification limit | about 30 × | ~46 × | about 19 × | about 18 fold
